The record followed here is ChEMBL document CHEMBL5154714, “Discovery of Novel Bicyclic Imidazolopyridine-Containing Human Urate Transporter 1 Inhibitors as Hypouricemic Drug Candidates with Improved Efficacy and Favorable Druggability” (J Med Chem, 2022).

Molecules are shown by their SMILES.

Data set [1] deals with Mus musculus. Description: Hypouricemic activity in Kunming mouse model of xanthine and potassium oxonate-induced acute hyperuricemia assessed as decrease in serum uric acid concentration at 1 mg/kg, po and measured after 4 hrs. Type of data set: functional.
A short description of data set [2]: Toxicity in Kunming mouse assessed as ballooning degeneration of liver at 50 mg/kg, po treated every other day for 14 days by H and E staining analysis. It is filed as organism-based. To be noted: in vivo, 336 h, time 14 day.
Data set [3] is described as follows: Toxicity in Kunming mouse assessed as hepatocellular condensation in liver at 50 mg/kg, po treated every other day for 14 days by H and E staining analysis. Type of data set: organism-based. The conditions noted are these: in vivo, 336 h, time 14 day.
The nature of data set [4]: Toxicity in Kunming mouse assessed as glomerular enlargement in kidney at 50 mg/kg, po treated every other day for 14 days by H and E staining analysis. The conditions noted are these: in vivo, 336 h, time 14 day. It is filed as organism-based.
Data set [5] in a line: Subacute toxicity in Kunming mouse assessed as clonic convulsion at 50 mg/kg, po treated every other day for 14 days. It is filed as organism-based. The conditions noted are these: in vivo, 336 h, time 14 day.
Data set [6] can be described thus: Subacute toxicity in Kunming mouse assessed as lethargy at 50 mg/kg, po treated every other day for 14 days. It is filed as organism-based. The conditions noted are these: in vivo, 336 h, time 14 day.
Data set [7] concerns Mus musculus. Kind of data set: Hypouricemic activity in Kunming mouse model of xanthine and potassium oxonate-induced acute hyperuricemia assessed as decrease in serum uric acid ratio at 2 mg/kg,po and measured after 4 hrs. It is filed as functional. On the set-up: scale not given: the % may be the effect or the level left.
For data set [8], the system named is Rattus norvegicus. Description: Hypouricemic activity in rat model of xanthine and potassium oxonate-induced acute hyperuricemia assessed as decrease in serum uric acid concentration at 2 mg/kg, po. It is filed as functional.
For data set [9], the system named is Rattus norvegicus. Description: Hypouricemic activity in rat model of xanthine and potassium oxonate-induced acute hyperuricemia assessed as decrease in serum uric acid ratio at 2 mg/kg, po. More on the design: scale not given: the % may be the effect or the level left. It is filed as functional.
Data set [10] is described as follows: Acute toxicity in Kunming mouse assessed as death at 500 mg/kg, IG measured up to 1 week. It is filed as organism-based. To be noted: in vivo, po, time < 1 weeks.
Data set [11] has as its system Mus musculus. Kind of data set: Hypouricemic activity in Kunming mouse model of xanthine and potassium oxonate-induced acute hyperuricemia assessed as decrease in serum uric acid ratio at 2 mg/kg, po incubated for more than 4 hrs. It is filed as functional. More on the design: scale not given: the % may be the effect or the level left.
The nature of data set [12]: Acute toxicity in Kunming mouse assessed as death at 250 mg/kg, IG measured up to 1 week. To be noted: in vivo, po, time < 1 weeks. It is filed as organism-based.
For data set [13], the system named is Mus musculus. Kind of data set: Hypouricemic activity in Kunming mouse model of xanthine and potassium oxonate-induced acute hyperuricemia assessed as decrease in serum uric acid concentration at 2 mg/kg, po and measured after 4 hrs. Type of data set: functional.
A short description of data set [14]: Subacute toxicity in Kunming mouse assessed as increase in body weight at 50 mg/kg, po measured treated every other day for 14 days. It is filed as organism-based. The conditions noted are these: in vivo, 336 h, time 14 day.
Data set [15] deals with Mus musculus. Description: Hypouricemic activity in Kunming mouse model of xanthine and potassium oxonate-induced acute hyperuricemia assessed as decrease in serum uric acid ratio at 1 mg/kg, po and measured after 4 hrs. It is filed as functional. More on the design: scale not given: the % may be the effect or the level left.
Data set [16] in a line: Subacute toxicity in Kunming mouse assessed as ruffled fur at 50 mg/kg, po treated every other day for 14 days. To be noted: in vivo, 336 h, time 14 day. Type of data set: organism-based.
The nature of data set [17]: Subacute toxicity in Kunming mouse assessed as death at 50 mg/kg, po treated every other day for 14 days. Type of data set: organism-based. To be noted: in vivo, 336 h, time 14 day.
The nature of data set [18]: Subacute toxicity in Kunming mouse assessed as anorexia at 50 mg/kg, po treated every other day for 14 days. It is filed as organism-based. The conditions noted are these: in vivo, 336 h, time 14 day.
Data set [19] concerns Mus musculus. Kind of data set: Hypouricemic activity in Kunming mouse model of xanthine and potassium oxonate-induced acute hyperuricemia assessed as decrease in serum uric acid concentration at 2 mg/kg, po incubated for more than 4 hrs. It is filed as functional.
Data set [20] in a line: Subacute toxicity in Kunming mouse assessed as death at 100 mg/kg, po for 15 days. Type of data set: organism-based. To be noted: in vivo, 360 h, time 15 day.
Data set [21] is described as follows: Toxicity in Kunming mouse assessed as hydropic degeneration of hepatocyte at 50 mg/kg, po treated every other day for 14 days by H and E staining analysis. It is filed as organism-based. The conditions noted are these: hepatocytes, 336 h, time 14 day.

As to `O=C(O)CSc1nnc(Br)n1-c1ccc(C2CC2)c2ccccc12`, the Activity in data set [1] is 1042.6 µM; in data set [2] it was “Toxic”; in data set [3], “Toxic”; in [4], “Toxic”; in [5], “Non-Toxic”; in [6], “Non-Toxic”. In addition, the Activity in [7] is 29.8%; in [8], 646.6 µM; in [9] it was 25.83%; in [11] it was 22.3%; in data set [13], 797.75 µM; in data set [14] it was “Non-Toxic”. In addition, the Activity is 4% in [15]; “Non-Toxic” in [16]; “Non-Toxic” in data set [17]; “Non-Toxic” in data set [18]; 841.2 µM in data set [19]; “Toxic” in [20]. For the same compound, the Activity entry in data set [21] is given as “Toxic”. Besides, the results for the mortality at 168 h in [10] and in [12] were 60% and 20%, respectively.

In general, mortality refers to the percentage killed.
